From patent publication US11964949B2, “Substituted phenyloxazolidinones for antimicrobial therapy” (priority 2015, dated 2024)
Values after ≈ are worked out from the molar mass of the structure shown. Where two headings read alike, the source gives them in different places.

Legend:
[1] = test system: mitochondrial protein synthesis (MPS) in H9C2 cells; test: In vitro assay for MPS inhibition (COX-1 / SDH-A ELISA in H9C2 cells); type: cell-based, rat; settings: Rattus norvegicus, read-out: IC50 (μM) MPS inhibition
[2] = test system: Mycobacterium tuberculosis H37Rv; test: In vitro assay for antimicrobial susceptibility (microplate Alamar blue, MIC); type: cell-based; settings: for MIC: Mycobacterium tuberculosis, read-out: MIC (μg/mL) against H37Rv
[3] = 120 h, H9C2 cells, 5 days incubation
[4] = M. tuberculosis H37Rv, 7H9 broth, Alamar blue

Compound | MIC [2, 4] | further results
O=C1O[C@@H](Cn2ccnn2)CN1c1ccc(N2CCCSCCC2)c(F)c1 [OBD-001, (R)-5-((1H-1,2,3-triazol-1-yl)methyl)-3-(3-fluoro-4-(1,5-thiazocan-5-yl)phenyl)oxazolidin-2-one] | 0.3 µg/mL (≈ 0.766 µM) | IC50 [1, 3]: 12 µM
O=C1O[C@@H](Cn2ccnn2)CN1c1ccc(N2CCC[S+]([O-])CCC2)c(F)c1 [OBD-002, (R)-5-((1H-1,2,3-Triazol-1-yl)methyl)-3-(3-fluoro-4-(1-oxido-1,5-thiazocan-5-yl)phenyl)oxazolidin-2-one] | 1.6 µg/mL (≈ 3.93 µM) | IC50 [1, 3]: 29 µM
CCCC(=O)NC[C@H]1CN(c2ccc(N3CCCSCCC3)c(F)c2)C(=O)O1 [OBD-003, (S)—N-((3-(3-fluoro-4-(1,5-thiazocan-5-yl)phenyl)-2-oxooxazolidin-5-yl)methyl)buty ramide] | 0.33 µg/mL (≈ 0.806 µM) | IC50 [1, 3]: > 100 µM
CCCC(=O)NC[C@H]1CN(c2ccc(N3CCC[S+]([O-])CCC3)c(F)c2)C(=O)O1 [OBD-004, (S)—N-((3-(3-Fluoro-4-(1-oxido-1,5-thiazocan-5-yl)phenyl)-2-oxooxazolidin-5-yl)methyl)butyramide] | 3.34 µg/mL (≈ 7.84 µM) | IC50 [1, 3]: 15.8 µM
CCCC(=O)NC[C@H]1CN(c2ccc(N3CCCSCC3)c(F)c2)C(=O)O1 [OBD-005, (S)—N-((3-(3-fluoro-4-(1,4-thiazepan-4-yl)phenyl)-2-oxooxazolidin-5-yl)methyl)buty ramide] | 0.055 µg/mL (≈ 0.139 µM) | IC50 [1, 3]: 15.6 µM
CCCC(=O)NC[C@H]1CN(c2ccc(N3CCC[S+]([O-])CC3)c(F)c2)C(=O)O1 (stereo partly drawn) [OBD-006, N-(((5S)-3-(3-Fluoro-4-(1-oxido-1,4-thiazepan-4-yl)phenyl)-2-oxooxazolidin-5-yl)methyl)butyramide] | 0.49 µg/mL (≈ 1.19 µM) | IC50 [1, 3]: 7.49 µM
CCCC(=O)NC[C@H]1CN(c2ccc(N3CCCS(=O)(=O)CC3)c(F)c2)C(=O)O1 [OBD-007, (S)—N-((3-(4-(1,1-Dioxido-1,4-thiazepan-4-yl)-3-fluorophenyl)-2-oxooxazolidin-5-yl)methyl)butyramide] | 0.46 µg/mL (≈ 1.08 µM) | IC50 [1, 3]: 19.8 µM
O=C1O[C@@H](Cn2cncn2)CN1c1ccc(N2CCCSCCC2)c(F)c1 [OBD-008, (R)-5-((1H-1,2,4-triazol-1-yl)methyl)-3-(3-fluoro-4-(1,5-thiazocan-5-yl)phenyl)oxazolidin-2-one] | 3.51 µg/mL (≈ 8.97 µM) | IC50 [1, 3]: 29.9 µM
O=C1O[C@@H](Cn2cncn2)CN1c1ccc(N2CCC[S+]([O-])CCC2)c(F)c1 [OBD-009, (R)-5-((1H-1,2,4-Triazol-1-yl)methyl)-3-(3-fluoro-4-(1-oxido-1,5-thiazocan-5-yl)phenyl)oxazolidin-2-one] | 21.1 µg/mL (≈ 51.7 µM) | IC50 [1, 3]: > 100 µM
CCCC(=O)NC[C@H]1CN(c2ccc(N3C4CCC3CSC4)c(F)c2)C(=O)O1 [OBD-016, N—(((S)-3-(4-(3-thia-8-aza-bicyclo[3.2.1]octan-8-yl)-3-fluorophenyl)-2-oxooxazolidin-5-yl)methyl)butyramide] | – | IC50 ([1]; H9c2, 120 h): 13 µM; MIC ([2]; H37RV): 0.486 µg/mL (≈ 1.19 µM)
O=C1O[C@@H](Cn2cncn2)CN1c1ccc(N2[C@@H]3CC[C@H]2C[S+]([O-])C3)c(F)c1 (stereo partly drawn) [OBD-018, (5R)-5-((1H-1,2,4-Triazol-1-yl)methyl)-3-(3-fluoro-4-((1R,5S)-3-oxido-3-thia-8-azabicyclo[3.2.1]octan-8-yl)phenyl)oxazolidin-2-one] | – | MIC ([2]; H37RV): > 32 µg/mL
O=C1O[C@@H](Cn2cncn2)CN1c1ccc(N2C3CCC2CSC3)c(F)c1 [OBD-021, (5R)-5-((1H-1,2,4-triazol-1-yl)methyl)-3-(4-(3-thia-8-aza-bicyclo[3.2.1]octan-8-yl)-3-fluorophenyl)oxazolidin-2-one] | – | MIC ([2]; H37RV): 27.5 µg/mL (≈ 70.5 µM)
CCCC(=O)NC[C@H]1CN(c2cc(F)c(N3CCCSCCC3)c(F)c2)C(=O)O1 [OBD-026, (S)—N-((3-(3,5-difluoro-4-(1,5-thiazocan-5-yl)phenyl)-2-oxooxazolidin-5-yl)methyl) butyramide] | 0.4 µg/mL (≈ 0.936 µM) | –
CC(=O)NC[C@H]1CN(c2cc(F)c(N3CCCSCCC3)c(F)c2)C(=O)O1 [OBD-027] | – | MIC ([2]; H37RV): 0.3 µg/mL (≈ 0.751 µM)
COC(=O)NC[C@H]1CN(c2cc(F)c(N3CC4CCC(C3)O4)c(F)c2)C(=O)O1 [OBD-049] | 0.25 to 1 µg/mL (≈ 0.629 to 2.52 µM) | –
NC[C@H]1CN(c2cc(F)c(N3CC4(COC4)C3)c(F)c2)C(=O)O1 [OBD-062] | 0.1 to 0.25 µg/mL (≈ 0.307 to 0.768 µM) | –
CNC[C@H]1CN(c2ccc(N3CCCSCC3)c(F)c2)C(=O)O1 [OTB-109, (S)-3-[3-Fluoro-4-(1,4-thiazepan-4-yl)phenyl]-5-[(methylamino)methyl]oxazolidin-2-one] | 32 µg/mL (≈ 94.3 µM) | –
O=C(NC[C@H]1CN(c2ccc(N3CCCSCCC3)c(F)c2)C(=O)O1)c1cccs1 [OTB-118, (S)—N-[[3-(3-Fluoro-4-(1,5-thiazocan-5-yl)phenyl)-2-oxo-oxazolidin-5-yl]methyl]thiophene-2-carboxamide] | 1.55 µg/mL (≈ 3.44 µM) | –

Compound | MIC [2, 4] | further results
CC(=O)NC[C@H]1CN(c2ccc(N3CCC[S+]([O-])CCC3)c(F)c2)C(=O)O1 [OTB-124, (S)—N-[[3-(3-Fluoro-4-(1-oxido-1,5-thiazocan-5-yl)phenyl)-2-oxo-oxazolidin-5-yl]methyl]acetamide] | 0.26 to 1.4 µg/mL (≈ 0.654 to 3.52 µM) | –
O=C1O[C@@H](CO)CN1c1ccc(N2CC3(COC3)C2)c(F)c1 [OTB-201, (R)-3-(3-Fluoro-4-(2-oxa-6-azaspiro[3.3]heptan-6-yl)phenyl)-5-(hydroxymethyl)oxazolidin-2-one] | 16 µg/mL (≈ 51.9 µM) | –
O=C(NC[C@H]1CN(c2ccc(N3CC4(COC4)C3)c(F)c2)C(=O)O1)c1ccco1 [OTB-205, (S)—N-((3-(3-Fluoro-4-(2-oxa-6-azaspiro[3.3]heptan-6-yl)phenyl)-2-oxo-oxazolidin-5-yl)methyl)furan-2-carboxamide] | 3.9 µg/mL (≈ 9.72 µM) | –
O=C(NC[C@H]1CN(c2ccc(N3CC4(COC4)C3)c(F)c2)C(=O)O1)c1cccs1 [OTB-206, (S)—N-((3-(3-Fluoro-4-(2-oxa-6-azaspiro[3.3]heptan-6-yl)phenyl)-2-oxo-oxazolidin-5-yl)methyl)thiophene-2-carboxamide] | 2.8 µg/mL (≈ 6.71 µM) | –
CS(=O)(=O)NC[C@H]1CN(c2ccc(N3CC4(COC4)C3)c(F)c2)C(=O)O1 [OTB-222, (R)—N-((3-(3-Fluoro-4-(2-oxa-6-azaspiro[3.3]heptan-6-yl)phenyl)-2-oxo-oxazolidin-5-yl)methyl)methanesulfonamide] | 7.4 µg/mL (≈ 19.2 µM) | –
COC(=O)NC[C@H]1CN(c2ccc(N3CC4(COC4)C3)c(F)c2)C(=O)O1 [OTB-223, Methyl (S)-((3-(3-fluoro-4-(2-oxa-6-azaspiro[3.3]heptan-6-yl)phenyl)-2-oxo-oxazolidin-5-yl)methyl)carbamate] | 0.8 to 2.6 µg/mL (≈ 2.19 to 7.12 µM) | –
O=C1O[C@@H](Cn2ccnn2)CN1c1cc(F)c(N2CC3(COC3)C2)c(F)c1 [OTB-234, (R)-5-((1H-1,2,3-Triazol-1-yl)methyl)-3-(3,5-difluoro-4-(2-oxa-6-azaspiro[3.3]heptan-6-yl)phenyl)oxazolidin-2-one] | 0.39 to 4 µg/mL (≈ 1.03 to 10.6 µM) | –
CS(=O)(=O)NC[C@H]1CN(c2ccc(N3[C@@H]4CC[C@H]3CSC4)c(F)c2)C(=O)O1 [OTB-236, N—(((R)-3-(4-((1R,5S)-3-Thia-8-azabicyclo[3.2.1]octan-8-yl)-3-fluorophenyl)-2-oxo-oxazolidin-5-yl)methyl)methanesulfonamide] | – | MIC ([2]; H37RV): 14.3 µg/mL (≈ 34.3 µM)
O=C(NC[C@H]1CN(c2cc(F)c(N3CC4(CSC4)C3)c(F)c2)C(=O)O1)C1CCC1 [OTB-244, (S)—N-((3-(3,5-Difluoro-4-(2-thia-6-azaspiro[3.3]heptan-6-yl)phenyl)-2-oxo-oxazolidin-5-yl)methyl)cyclobutanecarboxamide] | 0.02 to 0.6 µg/mL (≈ 0.0472 to 1.42 µM) | –
O=C(NC[C@H]1CN(c2ccc(N3CC4(CSC4)C3)c(F)c2)C(=O)O1)C1CC1 [OTB-249] | 0.06 to 0.15 µg/mL (≈ 0.153 to 0.383 µM) | –
O=C(NC[C@H]1CN(c2ccc(N3CC4(CSC4)C3)c(F)c2)C(=O)O1)C1CCC1 [OTB-250] | 0.06 µg/mL (≈ 0.148 µM) | –
O=C(NC[C@H]1CN(c2ccc(N3CCCSCC3)c(F)c2)C(=O)O1)C1CCC1 [OTB-414, (S)—N-((3-(3-Fluoro-4-(1,4-thiazepan-4-yl)phenyl)-2-oxooxazolidin-5-yl)methyl)cyclobutanecarboxamide] | 0.171 µg/mL (≈ 0.42 µM) | –
O=C1O[C@@H](CO)CN1c1ccc(N2[C@@H]3CC[C@H]2CSC3)c(F)c1 [OTB-501, (R)-3-(4-((1R,5S)-3-Thia-8-azabicyclo[3.2.1]octan-8-yl)-3-fluorophenyl)-5-(hydroxymethyl)oxazolidin-2-one] | – | MIC ([2]; H37RV): 4.5 µg/mL (≈ 13.3 µM)
CC(=O)NC[C@H]1CN(c2ccc(N3[C@@H]4CC[C@H]3C[S+]([O-])C4)c(F)c2)C(=O)O1 (stereo partly drawn) [OTB-503, N-(((5S)-3-(3-Fluoro-4-((1R,5S)-3-oxido-3-thia-8-azabicyclo[3.2.1]octan-8-yl)phenyl)-2-oxo-oxazolidin-5-yl)methyl)acetamide] | – | MIC ([2]; H37RV): 0.2 to 1.3 µg/mL (≈ 0.506 to 3.29 µM)
O=C1O[C@@H](Cn2ccnn2)CN1c1ccc(N2[C@@H]3CC[C@H]2CSC3)c(F)c1 [OTB-504, (R)-5-((1H-1,2,3-Triazol-1-yl)methyl)-3-(4-((1R,5S)-3-thia-8-azabicyclo[3.2.1]octan-8-yl)-3-fluorophenyl)oxazolidin-2-one] | – | MIC ([2]; H37RV): 0.5 to 0.7 µg/mL (≈ 1.28 to 1.8 µM)
O=C1O[C@@H](Cn2ccnn2)CN1c1ccc(N2[C@@H]3CC[C@H]2C[S+]([O-])C3)c(F)c1 (stereo partly drawn) [OTB-505, (5R)-5-((1H-1,2,3-Triazol-1-yl)methyl)-3-(3-fluoro-4-((1R,5S)-3-oxido-3-thia-8-azabicyclo[3.2.1]octan-8-yl)phenyl)oxazolidin-2-one] | – | MIC ([2]; H37RV): 1.8 to 3.5 µg/mL (≈ 4.44 to 8.63 µM)
O=C1O[C@@H](Cn2ccnn2)CN1c1cc(F)c(N2[C@@H]3CC[C@H]2CSC3)c(F)c1 [OTB-511, (R)-5-((1H-1,2,3-Triazol-1-yl)methyl)-3-(4-((1R,5S)-3-thia-8-azabicyclo[3.2.1]octan-8-yl)-3,5-difluorophenyl)oxazolidin-2-one] | – | MIC ([2]; H37RV): 0.06 to 0.2 µg/mL (≈ 0.147 to 0.491 µM)
(R)-5-((1H-1,2,3-Triazol-1-yl)methyl)-3-(3-fluoro-4-(2-oxa-6-azaspiro[3.3]heptan-6-yl)phenyl)oxazolidin-2-one [OTB-203] | – | MIC (μg/mL) against H37Rv [2, 4]: >32 µg/mL
